The source of these data is paper PMC12177760, “In Silico Discovery of a Novel Antiviral Scaffold for SARS-CoV‑2 Targeting the Spike Glycoprotein through the Fatty Acid Binding Pocket” (ACS Omega, 2025).

Each structure is given as a SMILES string.

Series [1] concerns SARS-CoV-2 original Wuhan strain (INMI1 P4) in Vero E6 cells. The experiment in a line: microbe, parasite or virus in culture. To be noted: for inhibition at 33 µM: Severe acute respiratory syndrome coronavirus 2, Vero C1008, 72 h; for inhibition at 33 µM / inhibition at 22 µM: read-out: inhibition of viral induced CPE; for inhibition at 22 µM: Severe acute respiratory syndrome coronavirus 2, Vero C1008. Format: cell-based.

The subject of series [2] is SARS-CoV-2 Wuhan strain. Format: cell-based.
In series [3] the test system is SARS-CoV-2 Wuhan strain. Type of series: cell-based. The source holds these as a separate data set.
A further series can be described thus: in vitro. Conditions: African green monkey.
For series [4], the target named is S-ACE2 interaction (SARS-CoV-2 S protein trimer, Wuhan strain, with biotinylated-ACE2) (Severe acute respiratory syndrome coronavirus 2, UniProt P0DTC2). Kind of series: biochemical. Type of series: binding. Conditions: for inhibition of the S-ACE2 interaction: 200 μM.
The next series concerns Vero E6 cells. Conditions: 200 μM.
Another series relates to RBD-ACE2 binding. To be noted: ref not given, cited from earlier work.

The term inhibition denotes the relative decrease from the control value, in per cent. By EC50 is commonly meant the concentration that produces a half-maximal response. As to `CC(c1ccc(-n2cncn2)cc1)N(C)C(=O)CCC(=O)N1CCC(c2ccccc2)=N1` (stereo not shown) [compound 36], in series [1], the inhibition at 33 µM came to 91%. Further, in series [1] (Severe acute respiratory syndrome coronavirus 2, Vero C1008, read-out: EC50 (inhibition of SARS-CoV-2-induced CPE)), the EC50 came out at 0.29 µM. The “detected viral genomic copies” value in the series with SARS-CoV-2 Wuhan strain [2] was 16.9 copies/20 μL. The “reduction in number of viral genome copies in the supernatant” value with SARS-CoV-2 Wuhan strain [2] (33 μM) was found to be 89%. Also, in the series with SARS-CoV-2 Wuhan strain [3], the “PFU/mL, drug” value is given as 2.49 × 10^7 PFU/mL and the “reduction of replication-capable lytic virions (TCID50)” value was found to be 90%. As to `CC(NC(=O)CCC(=O)N1CCC(c2ccccc2)=N1)c1ccc(-n2cncn2)cc1` (stereo not shown) [compound 17], the “reduction in viral induced CPE” value in series [1] (2.5 μM) is reported as “over 10%”. Besides, the inhibition at 33 µM in series [1] was 23%. Further, in “in vitro”, the CC50 worked out at 90 µM. For the same compound, in series [4], the inhibition at 200 µM is roughly 20% and the “inhibition of the S-ACE2 interaction” value was “surpassed PEA”. The cytotoxicity entry with Vero E6 cells is “strong cytotoxicity”. In addition, in the series on SARS-CoV-2 Wuhan strain [3], the “decrease in the number of infectious virions released” value was 81%. As to `Cc1nc(-c2ccc(C(C)NC(=O)CCC(=O)N3CCC(c4ccccc4)=N3)cc2)cs1` (stereo not shown) [compound 20], the inhibition at 33 µM in series [1] came to 34%. As to `O=C(Nc1nc(-c2ccc3c(c2)CCC3)cs1)c1ccc(CSc2nnc[nH]2)cc1` [compound 12], the “inhibition of the S-ACE2 interaction” value in series [4] was “surpassed PEA”. Compound `O=C(CCc1nc2ccccc2s1)N1CCC(CCc2ccc(O)cc2)CC1` [compound 9] gave an inhibition at 200 µM in series [4] of 20%.

Take `Cc1cccc(OCC(=O)N2CC=C(c3c[nH]c4ccccc34)CC2)c1C` [compound 15]: the inhibition at 22 µM in series [1] was determined as 10%. This compound returned an inhibition at 200 µM in series [4] of 20%.

Take `CC(NC(=O)CCC(=O)N1CCN(c2ccccc2)CC1)c1ccc(-n2cncn2)cc1` (stereo not shown) [compound 31]: the inhibition at 33 µM in series [1] amounted to 8%.

As for `CC(NC(=O)CCC(=O)N1CCC(c2ccccc2)=N1)c1ccc(-c2ccccc2)cc1` (stereo not shown) [compound 32], in series [1], the inhibition at 33 µM worked out at 27%.

`CC(OC(=O)CCC(=O)N1CCC(c2ccccc2)=N1)c1ccc(-n2cncn2)cc1` (stereo not shown) [compound 34]: in series [1], the inhibition at 33 µM is 19%. In the case of `Cc1ccc(C(C)N(C)C(=O)CCC(=O)N2CCC(c3ccccc3)=N2)cc1` (stereo not shown) [compound 27], the “antiviral activity (qualitative structure-activity relationship, CPE)” value in series [1] is recorded as “activity maintained”. For `CCCCCCCCCCCCCCCC(=O)NCCO` [PEA, palmitoylethanolamide, reference compound], the inhibition at 200 µM in series [4] turned out to be 17%. Further, in the series with RBD-ACE2 binding, the “reduction of RBD binding with ACE2” value is recorded as roughly 50%.

As for `N#Cc1ccc(C2(NC(=O)CCC(=O)N3CCC(c4ccccc4)=N3)CC2)cc1` [compound 35], the inhibition at 33 µM in series [1] was determined as 16%. `CCCCC/C=C\C/C=C\CCCCCCCC(=O)O` [LA, linoleic acid, reference compound] yielded an inhibition at 200 µM in series [4] of 84%. Further, in the series on RBD-ACE2 binding (8.9 mM, in vitro assays), the “inhibition of the RBD-ACE2 binding” value was 100%. As to `CC(=O)c1ccc(N2CCN(Cn3nc4cc(C)c5ccccc5n4c3=S)CC2)cc1` [compound 1], in series [1], the inhibition at 22 µM was 10%. As for `CCn1c2ccccc2c2cc(NC(=O)c3ccc(OCC(N)=O)cc3)ccc21` [compound 4], the “reduction in viral induced CPE” value in series [1] (67 μM) was “over 10%”. This compound showed an inhibition at 200 µM in series [4] of 28%. `CS(=O)(=O)N1CCCc2cc(-c3csc(-c4cccc(C(N)=O)c4)n3)ccc21` [compound 7] showed an inhibition at 200 µM in series [4] of 20%.
